Laboratory results taken from ChEMBL document CHEMBL5096212, “Development of a water-soluble ryanodine receptor 1 inhibitor” (Bioorg Med Chem, 2022).
≈ marks a conversion by molar mass, not a printed value.

What was measured:
[1] = Solubility of the compound in 30% EtOH/PBS measured after 48 hrs by HPLC analysis; type: physicochemical
[2] = Inhibition of RyR1 R2163C mutant (unknown origin) expressed in HEK293 cells measured every 10s for 300s by R-CEPIA1er based fluorescence analysis; type: cell-based, Homo sapiens
[3] = Solubility of the compound in saline measured after 48 hrs by HPLC analysis; type: physicochemical; details: buffer

| Compound | solubility at 48 h [1] [µg/mL] | EC50 [2] [nM] | solubility [3] [µg/mL] |
| --- | --- | --- | --- |
| CCCCCCCCn1cc(C(=O)O)c(=O)c2c(OC)nccc21 | – | 1700 | – |
| CCCCCCCn1cc(C(=O)O)c(=O)c2cnc(OC)cc21 | – | 525 | – |
| CCCCCCCCn1cc(C(=O)[O-])c(=O)c2cnc(OC)cc21.[Na+] | – | – | 27 |
| CCCCCCCCn1cc(C(=O)O)c(=O)c2cnc(OC)cc21 | 414 (≈ 1250 µM) | 68 | – |
| CCCCCCCCn1cc(C(=O)[O-])c(=O)c2cc3c(cc21)OCO3.[Na+] | – | – | 0.84 |

Results, then the compound that gave them:

| solubility at 48 h [1] [µg/mL] | EC50 [2] [nM] | solubility [3] [µg/mL] | Compound |
| --- | --- | --- | --- |
| 4.7 (≈ 13.6 µM) | 12 | – | CCCCCCCCn1cc(C(=O)O)c(=O)c2cc3c(cc21)OCO3 |
| – | 70 | – | CCCCCCn1cc(C(=O)O)c(=O)c2cc3c(cc21)OCO3 |
| – | – | 3.9 | CCCCCCCn1cc(C(=O)[O-])c(=O)c2cc3c(cc21)OCO3.[Na+] |
| 54 (≈ 163 µM) | 11 | – | CCCCCCCn1cc(C(=O)O)c(=O)c2cc3c(cc21)OCO3 |
